Test results taken from patent publication US20250353891A1 (MEDIMMUNE LIMITED, priority 2022, published 2025).
Starred links: 1 amine or outer side, 2 acyl side, 3 side chain; linkers in the order of their positions; H or OH if unused. Non-standard residues stand in square brackets, D forms with d. Residues, ends and D or L forms follow the SMILES beside them. Groups on a side chain read outwards from the residue. *: point of attachment. C20 diacid = O=C(O)CCCCCCCCCCCCCCCCCCC(=O)*; C18 diacid = O=C(O)CCCCCCCCCCCCCCCCC(=O)*; γGlu = O=C(O)[C@H](CCC(=O)[*:2])N[*:1]; αMeF = C[C@](N)(Cc1ccccc1)C(=O)O; AEEA = NCCOCCOCC(=O)O; Aib = CC(C)(N)C(=O)O

Experiments:
[1] = molecular target: human GLP-1 receptor (hGLP-1R) (Homo sapiens, UniProt P43220); assay: cAMP production (HTRF) in CHO cells expressing hGLP-1R; type: cell-based; parameters: expressed in transfected cells; conditions: for % Relative Potency Ratio: % GLP-1R activity relative to GLP-1 / % GlucR activity relative to glucagon; for EC50: cAMP, CHO cells, 0.1% BSA, geometric mean, read-out: hGLP-1R EC50
Outline: (§1)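 Potency values represent EC50 from 4-parameter logistic curves of HTRF % Delta F signal. Receptor-expressing CHO cells (hGCGR 2×10^5 cells/mL, hGLP-1R 1×10^5 cells/mL) were exposed for 30 min at room temperature before two-step cAMP detection.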

[2] = molecular target: human glucagon receptor (hGCGR) (Homo sapiens, UniProt P47871); assay: cAMP production (HTRF) in CHO cells expressing hGCGR; type: cell-based; parameters: expressed in transfected cells; conditions: cAMP, CHO cells, 0.1% BSA, geometric mean; read-out: hGluc-R EC50
Outline: as §1

human GLP-1 receptor (hGLP-1R), sequence (P43220 24-463): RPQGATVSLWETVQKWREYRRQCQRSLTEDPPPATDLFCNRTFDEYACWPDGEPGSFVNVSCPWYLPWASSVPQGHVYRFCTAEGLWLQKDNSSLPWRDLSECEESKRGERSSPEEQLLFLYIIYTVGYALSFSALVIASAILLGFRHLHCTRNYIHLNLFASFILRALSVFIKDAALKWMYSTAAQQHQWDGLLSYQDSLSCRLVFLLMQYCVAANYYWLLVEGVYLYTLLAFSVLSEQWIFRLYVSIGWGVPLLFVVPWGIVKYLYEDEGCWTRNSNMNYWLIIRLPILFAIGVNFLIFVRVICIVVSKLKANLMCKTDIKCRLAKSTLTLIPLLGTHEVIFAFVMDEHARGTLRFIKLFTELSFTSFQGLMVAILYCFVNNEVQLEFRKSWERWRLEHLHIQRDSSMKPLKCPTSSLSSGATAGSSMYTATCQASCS
human glucagon receptor (hGCGR), sequence (P47871 26-477): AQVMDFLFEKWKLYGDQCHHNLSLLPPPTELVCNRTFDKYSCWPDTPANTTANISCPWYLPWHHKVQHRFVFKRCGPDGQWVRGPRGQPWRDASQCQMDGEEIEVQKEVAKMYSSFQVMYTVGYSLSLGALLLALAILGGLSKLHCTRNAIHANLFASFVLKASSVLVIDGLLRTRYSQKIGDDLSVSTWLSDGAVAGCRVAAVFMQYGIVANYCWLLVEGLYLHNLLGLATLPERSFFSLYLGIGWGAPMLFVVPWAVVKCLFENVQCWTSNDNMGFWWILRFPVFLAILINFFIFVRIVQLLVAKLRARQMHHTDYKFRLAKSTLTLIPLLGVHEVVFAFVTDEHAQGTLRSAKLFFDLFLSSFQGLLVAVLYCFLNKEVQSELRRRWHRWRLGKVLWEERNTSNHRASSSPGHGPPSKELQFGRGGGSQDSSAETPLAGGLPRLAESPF

Row | % Relative Potency Ratio [1] | EC50 [1] | EC50 [2] | Compound
1 | 3.8 | 0.104 nM | 0.202 nM | CC[C@H](C)[C@H](NC(=O)C(C)(C)NC(=O)[C@H](CCCCNC(=O)COCCOCCNC(=O)COCCOCCNC(=O)CC[C@H](NC(=O)CCCCCCCCCCCCCCCCCCC(=O)O)C(=O)O)NC(=O)[C@@H](NC(=O)[C@H](Cc1ccccc1)NC(=O)[C@H](CC(=O)O)NC(=O)[C@H](CCC(N)=O)NC(=O)[C@H](C)NC(=O)[C@H](C)NC(=O)[C@H](CCCNC(=N)N)NC(=O)[C@H](CO)NC(=O)[C@H](CC(=O)O)NC(=O)[C@H](CC(C)C)NC(=O)[C@](C)(Cc1ccccc1)NC(=O)[C@H](CCCCN)NC(=O)[C@H](CO)NC(=O)[C@@H](NC(=O)[C@H](CC(=O)O)NC(=O)[C@H](CO)NC(=O)[C@@H](NC(=O)[C@](C)(Cc1ccccc1)NC(=O)[C@H](CO)NC(=O)CNC(=O)[C@H](Cc1c[nH]cn1)NC(=O)C(C)(C)NC(=O)[C@@H](N)Cc1c[nH]cn1)[C@@H](C)O)C(C)C)C(C)C)C(=O)N[C@@H](C)C(=O)N[C@@H](CC(N)=O)C(=O)N[C@H](C(N)=O)[C@@H](C)O [Peptide 369] (H-H[Aib]HGS[αMeF]TSDVSK[αMeF]LDSRAAQDFVK([AEEA-AEEA-γGlu-C20 diacid])[Aib]IANT-NH2; N-terminus assumed)
2 | 1.1 | 0.323 nM | 0.182 nM | CC[C@H](C)[C@H](NC(=O)[C@H](Cc1c[nH]c2ccccc12)NC(=O)[C@H](CCCCNC(=O)COCCOCCNC(=O)COCCOCCNC(=O)CC[C@H](NC(=O)CCCCCCCCCCCCCCCCC(=O)O)C(=O)O)NC(=O)[C@@H](NC(=O)[C@](C)(Cc1ccccc1)NC(=O)[C@H](CC(=O)O)NC(=O)[C@H](CCC(N)=O)NC(=O)[C@H](C)NC(=O)[C@H](C)NC(=O)[C@H](CCC(N)=O)NC(=O)[C@H](CO)NC(=O)[C@H](CC(=O)O)NC(=O)[C@H](CC(C)C)NC(=O)[C@](C)(Cc1ccccc1)NC(=O)[C@H](CCCCN)NC(=O)[C@H](CO)NC(=O)[C@@H](NC(=O)[C@H](CC(=O)O)NC(=O)[C@H](CO)NC(=O)[C@@H](NC(=O)[C@](C)(Cc1ccccc1)NC(=O)[C@H](CO)NC(=O)CNC(=O)[C@H](Cc1c[nH]cn1)NC(=O)C(C)(C)NC(=O)[C@@H](N)Cc1c[nH]cn1)[C@@H](C)O)C(C)C)C(C)C)C(=O)N[C@@H](C)C(=O)N[C@@H](CC(N)=O)C(=O)N[C@H](C(N)=O)[C@@H](C)O [Peptide 370] (H-H[Aib]HGS[αMeF]TSDVSK[αMeF]LDSQAAQD[αMeF]VK([AEEA-AEEA-γGlu-C18 diacid])WIANT-NH2; N-terminus assumed)
3 | 0.9 | 0.191 nM | 0.0872 nM | CC[C@H](C)[C@H](NC(=O)[C@H](Cc1c[nH]c2ccccc12)NC(=O)[C@H](CCCCNC(=O)COCCOCCNC(=O)COCCOCCNC(=O)CC[C@H](NC(=O)CC[C@H](NC(=O)CCCCCCCCCCCCCCCCC(=O)O)C(=O)O)C(=O)O)NC(=O)[C@@H](NC(=O)[C@](C)(Cc1ccccc1)NC(=O)[C@H](CC(=O)O)NC(=O)[C@H](CCC(N)=O)NC(=O)[C@H](C)NC(=O)[C@H](C)NC(=O)[C@H](CCCNC(=N)N)NC(=O)[C@H](CO)NC(=O)[C@H](CC(=O)O)NC(=O)[C@H](CC(C)C)NC(=O)[C@](C)(Cc1ccccc1)NC(=O)[C@H](CCCCN)NC(=O)[C@H](CO)NC(=O)[C@@H](NC(=O)[C@H](CC(=O)O)NC(=O)[C@H](CO)NC(=O)[C@@H](NC(=O)[C@](C)(Cc1ccccc1)NC(=O)[C@H](CO)NC(=O)CNC(=O)[C@H](Cc1c[nH]cn1)NC(=O)C(C)(C)NC(=O)[C@@H](N)Cc1c[nH]cn1)[C@@H](C)O)C(C)C)C(C)C)C(=O)N[C@@H](C)C(=O)N[C@@H](CC(N)=O)C(=O)N[C@H](C(N)=O)[C@@H](C)O [Peptide 371] (H-H[Aib]HGS[αMeF]TSDVSK[αMeF]LDSRAAQD[αMeF]VK([AEEA-AEEA-γGlu-γGlu-C18 diacid])WIANT-NH2; N-terminus assumed)
4 | 7.2 | 0.0667 nM | 0.242 nM | CC[C@H](C)[C@H](NC(=O)C(C)(C)NC(=O)[C@H](CCCCNC(=O)COCCOCCNC(=O)COCCOCCNC(=O)CC[C@H](NC(=O)CC[C@H](NC(=O)CCCCCCCCCCCCCCCCC(=O)O)C(=O)O)C(=O)O)NC(=O)[C@@H](NC(=O)[C@](C)(Cc1ccccc1)NC(=O)[C@H](CC(=O)O)NC(=O)[C@H](CCC(N)=O)NC(=O)[C@H](C)NC(=O)[C@H](C)NC(=O)[C@H](CCCNC(=N)N)NC(=O)[C@H](CO)NC(=O)[C@H](CC(=O)O)NC(=O)[C@H](CC(C)C)NC(=O)[C@](C)(Cc1ccccc1)NC(=O)[C@H](CCCCN)NC(=O)[C@H](CO)NC(=O)[C@@H](NC(=O)[C@H](CC(=O)O)NC(=O)[C@H](CO)NC(=O)[C@@H](NC(=O)[C@](C)(Cc1ccccc1)NC(=O)[C@H](CO)NC(=O)CNC(=O)[C@H](Cc1c[nH]cn1)NC(=O)C(C)(C)NC(=O)[C@@H](N)Cc1c[nH]cn1)[C@@H](C)O)C(C)C)C(C)C)C(=O)N[C@@H](C)C(=O)N[C@@H](CC(N)=O)C(=O)N[C@H](C(=O)NCC(=O)NCC(N)=O)[C@@H](C)O [Peptide 373] (H-H[Aib]HGS[αMeF]TSDVSK[αMeF]LDSRAAQD[αMeF]VK([AEEA-AEEA-γGlu-γGlu-C18 diacid])[Aib]IANTGG-NH2; N-terminus assumed)
5 | 1.2 | 0.434 nM | 0.26 nM | CC[C@H](C)[C@H](NC(=O)[C@H](Cc1c[nH]c2ccccc12)NC(=O)[C@H](CCCCNC(=O)COCCOCCNC(=O)COCCOCCNC(=O)CC[C@H](NC(=O)CC[C@H](NC(=O)CCCCCCCCCCCCCCCCCCC(=O)O)C(=O)O)C(=O)O)NC(=O)[C@@H](NC(=O)[C@](C)(Cc1ccccc1)NC(=O)[C@H](CC(=O)O)NC(=O)[C@H](CCC(N)=O)NC(=O)[C@H](C)NC(=O)[C@H](C)NC(=O)[C@H](CCCNC(=N)N)NC(=O)[C@H](CO)NC(=O)[C@H](CC(=O)O)NC(=O)[C@H](CC(C)C)NC(=O)[C@](C)(Cc1ccccc1)NC(=O)[C@H](CCCCN)NC(=O)[C@H](CO)NC(=O)[C@@H](NC(=O)[C@H](CC(=O)O)NC(=O)[C@H](CO)NC(=O)[C@@H](NC(=O)[C@](C)(Cc1ccccc1)NC(=O)[C@H](CO)NC(=O)CNC(=O)[C@H](Cc1c[nH]cn1)NC(=O)C(C)(C)NC(=O)[C@@H](N)Cc1c[nH]cn1)[C@@H](C)O)C(C)C)C(C)C)C(=O)N[C@@H](C)C(=O)N[C@@H](CC(N)=O)C(=O)N[C@H](C(N)=O)[C@@H](C)O [Peptide 374] (H-H[Aib]HGS[αMeF]TSDVSK[αMeF]LDSRAAQD[αMeF]VK([AEEA-AEEA-γGlu-γGlu-C20 diacid])WIANT-NH2; N-terminus assumed)
6 | 2.5 | 0.15 nM | 0.19 nM | CC[C@H](C)[C@H](NC(=O)[C@H](Cc1c[nH]c2ccccc12)NC(=O)[C@H](CCCCNC(=O)COCCOCCNC(=O)COCCOCCNC(=O)CC[C@H](NC(=O)CC[C@H](NC(=O)CCCCCCCCCCCCCCCCCCC(=O)O)C(=O)O)C(=O)O)NC(=O)[C@@H](NC(=O)[C@H](Cc1ccccc1)NC(=O)[C@H](CC(=O)O)NC(=O)[C@H](CCC(N)=O)NC(=O)[C@H](C)NC(=O)[C@H](C)NC(=O)[C@H](CCCNC(=N)N)NC(=O)[C@H](CO)NC(=O)[C@H](CC(=O)O)NC(=O)[C@H](CC(C)C)NC(=O)[C@](C)(Cc1ccccc1)NC(=O)[C@H](CCCCN)NC(=O)[C@H](CO)NC(=O)[C@@H](NC(=O)[C@H](CC(=O)O)NC(=O)[C@H](CO)NC(=O)[C@@H](NC(=O)[C@](C)(Cc1ccccc1)NC(=O)[C@H](CO)NC(=O)CNC(=O)[C@H](Cc1c[nH]cn1)NC(=O)C(C)(C)NC(=O)[C@@H](N)Cc1c[nH]cn1)[C@@H](C)O)C(C)C)C(C)C)C(=O)N[C@@H](C)C(=O)N[C@@H](CC(N)=O)C(=O)N[C@H](C(N)=O)[C@@H](C)O [Peptide 377] (H-H[Aib]HGS[αMeF]TSDVSK[αMeF]LDSRAAQDFVK([AEEA-AEEA-γGlu-γGlu-C20 diacid])WIANT-NH2; N-terminus assumed)
7 | 2.0 | 0.159 nM | 0.158 nM | CC[C@H](C)[C@H](NC(=O)[C@H](CO)NC(=O)[C@H](CCCCNC(=O)COCCOCCNC(=O)COCCOCCNC(=O)CC[C@H](NC(=O)CC[C@H](NC(=O)CCCCCCCCCCCCCCCCC(=O)O)C(=O)O)C(=O)O)NC(=O)[C@@H](NC(=O)[C@](C)(Cc1ccccc1)NC(=O)[C@H](CC(=O)O)NC(=O)[C@H](CCC(N)=O)NC(=O)[C@H](C)NC(=O)[C@H](C)NC(=O)[C@H](CCCNC(=N)N)NC(=O)[C@H](CO)NC(=O)[C@H](CC(=O)O)NC(=O)[C@H](CC(C)C)NC(=O)[C@](C)(Cc1ccccc1)NC(=O)[C@H](CCCCN)NC(=O)[C@H](CO)NC(=O)[C@@H](NC(=O)[C@H](CC(=O)O)NC(=O)[C@H](CO)NC(=O)[C@@H](NC(=O)[C@](C)(Cc1ccccc1)NC(=O)[C@H](CO)NC(=O)CNC(=O)[C@H](Cc1c[nH]cn1)NC(=O)C(C)(C)NC(=O)[C@@H](N)Cc1c[nH]cn1)[C@@H](C)O)C(C)C)C(C)C)C(=O)N[C@@H](C)C(=O)N[C@@H](CC(N)=O)C(=O)N[C@H](C(N)=O)[C@@H](C)O [Peptide 378] (H-H[Aib]HGS[αMeF]TSDVSK[αMeF]LDSRAAQD[αMeF]VK([AEEA-AEEA-γGlu-γGlu-C18 diacid])SIANT-NH2; N-terminus assumed)
